The target in one test is T1, Drosophila OR13a (Drosophila melanogaster, UniProt Q9VXL0).
T1 construct: expressed in transfected cells
T1 sequence (Q9VXL0 1-418): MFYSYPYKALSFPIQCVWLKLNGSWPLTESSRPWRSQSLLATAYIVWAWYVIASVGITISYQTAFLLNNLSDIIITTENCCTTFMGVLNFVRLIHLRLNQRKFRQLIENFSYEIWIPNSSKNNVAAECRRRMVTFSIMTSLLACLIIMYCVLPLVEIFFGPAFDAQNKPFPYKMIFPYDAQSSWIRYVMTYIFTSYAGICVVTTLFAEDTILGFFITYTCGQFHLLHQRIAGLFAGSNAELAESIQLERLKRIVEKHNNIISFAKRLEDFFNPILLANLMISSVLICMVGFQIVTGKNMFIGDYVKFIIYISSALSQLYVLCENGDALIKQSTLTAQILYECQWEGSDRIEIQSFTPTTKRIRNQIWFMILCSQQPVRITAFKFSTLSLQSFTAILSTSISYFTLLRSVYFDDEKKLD
T1 sequence (Q9VNB5 1-486 partner): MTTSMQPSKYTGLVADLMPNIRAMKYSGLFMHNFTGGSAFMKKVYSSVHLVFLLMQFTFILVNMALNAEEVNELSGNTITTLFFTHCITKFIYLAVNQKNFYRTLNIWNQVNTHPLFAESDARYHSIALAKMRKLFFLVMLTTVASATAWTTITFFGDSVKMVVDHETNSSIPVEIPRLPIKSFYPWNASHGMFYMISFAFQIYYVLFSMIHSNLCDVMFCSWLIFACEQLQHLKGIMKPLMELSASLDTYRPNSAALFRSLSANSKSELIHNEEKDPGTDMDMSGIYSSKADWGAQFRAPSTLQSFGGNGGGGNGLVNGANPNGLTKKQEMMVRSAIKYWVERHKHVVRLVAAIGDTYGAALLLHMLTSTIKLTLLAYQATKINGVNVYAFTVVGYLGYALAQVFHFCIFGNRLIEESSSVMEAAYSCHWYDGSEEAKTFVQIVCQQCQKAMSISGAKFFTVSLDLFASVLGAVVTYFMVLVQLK
Briefly: Calcium ion fluorescence (GCaMP6) assay, OR13a stable HEK293 cell line. The format is cell-based. Set-up: key to DF norm AVERAGE OR13a: VOC ∆F divided by the plate's mean ∆F response to 50 µM VUAA1. Put shortly: (§1)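 HEK293 lines stably expressing each Drosophila OR with GCaMP6, doxycycline-induced (1 μg/mL) 48 or 72 h. Fluorescence recorded 5 s baseline then 30 s after VOC injection at pH 7.3; ΔF=(FMAX−F0)/F0, normalized to 50 µM VUAA1 response per line, triplicate wells averaged; concentration series 0.01–100 μM.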

The target in the next test is T2, Drosophila OR98a (Drosophila melanogaster, UniProt Q9VAZ3).
T2 construct: expressed in transfected cells
T2 sequence (Q9VAZ3 1-397): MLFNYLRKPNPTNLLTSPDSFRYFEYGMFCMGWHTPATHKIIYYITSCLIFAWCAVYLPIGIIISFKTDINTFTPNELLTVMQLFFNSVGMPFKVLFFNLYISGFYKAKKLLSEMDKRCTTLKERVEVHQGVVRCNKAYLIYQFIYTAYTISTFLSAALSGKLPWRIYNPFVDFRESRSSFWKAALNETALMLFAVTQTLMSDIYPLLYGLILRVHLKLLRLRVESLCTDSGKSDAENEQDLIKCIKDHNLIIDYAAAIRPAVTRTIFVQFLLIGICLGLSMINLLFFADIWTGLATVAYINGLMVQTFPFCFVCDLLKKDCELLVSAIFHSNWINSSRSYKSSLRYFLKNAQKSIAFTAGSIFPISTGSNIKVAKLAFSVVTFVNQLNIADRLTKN
T2 sequence (Q9VNB5 1-486 partner): T1 sequence (Q9VNB5 1-486 partner)
The test is described as follows: Calcium ion fluorescence (GCaMP6) assay, OR98a stable HEK293 cell line. The format is cell-based. Set-up: key to DF norm AVERAGE OR98a: VOC ∆F divided by the plate's mean ∆F response to 50 µM VUAA1. Put shortly:
as §1

[1] abbreviates: HEK293, read-out: OR13a Average response (VUAA1-normalized), 1 μM VOC, 50 μM VUAA1 = 1, responses not exceeding 0.05 considered 0.
Setting [2] is: HEK293, read-out: OR13a Average response (VUAA1-normalized), 10 μM VOC, 50 μM VUAA1 = 1, responses not exceeding 0.05 considered 0.
The mark [3] stands for this setting: HEK293, read-out: OR13a Average response (VUAA1-normalized), 100 μM VOC, 50 μM VUAA1 = 1, responses not exceeding 0.05 considered 0.
Where [4] appears, read: HEK293, read-out: OR13a response (VUAA1-normalized response), VOC concentration 1 μM.
Where [5] appears, read: HEK293, read-out: OR13a response (VUAA1-normalized response), VOC concentration 10 μM.
The mark [6] stands for this setting: HEK293, read-out: OR13a response (VUAA1-normalized response), VOC concentration 100 μM.
The mark [7] stands for this setting: concentration 1, normalized fluorescence change, values below 0.05 threshold given as 0.
Setting [8] is: concentration 10, normalized fluorescence change, values below 0.05 threshold given as 0.
Setting [9] is: concentration 100, normalized fluorescence change, values below 0.05 threshold given as 0.
Setting [10] is: HEK293, read-out: Average response.
[11] abbreviates: HEK293, read-out: OR98a response (VUAA1-normalized response).
Where [12] appears, read: HEK293, read-out: OR13a Average response (VUAA1-normalized).
[13] abbreviates: HEK293, read-out: OR13a response (VUAA1-normalized response).
The mark [14] stands for this setting: ligand concentration 1 (unit not given), threshold 0.05, below shown as 0.
Where [15] appears, read: ligand concentration 10 (unit not given), threshold 0.05, below shown as 0.
Where [16] appears, read: ligand concentration 100 (unit not given), threshold 0.05, below shown as 0.
The mark [17] stands for this setting: HEK293, read-out: OR98a Average response (VUAA1-normalized).

Read-outs that look alike come from different tables or passages of the source.

Take `CCCCC(C)=O` [2-hexanone]: the activation at 1 µM on Drosophila OR13a (setting [1]) was determined as 6%; on Drosophila OR13a (setting [4]), 6%; at Drosophila OR98a (setting [10]), 3%; at Drosophila OR98a (setting [11]), 0%. Moreover, the activation at 10 µM is 0% on Drosophila OR13a (setting [2]), 0% on Drosophila OR13a (setting [5]), 4.36% at Drosophila OR98a (setting [10]) and 0% at Drosophila OR98a (setting [11]). The activation at 100 µM on Drosophila OR13a (setting [3]) is 0%; on Drosophila OR13a (setting [6]), 0%; at Drosophila OR98a (setting [10]), 3.5%; on Drosophila OR98a (setting [11]), 0%. For the same molecule, the results for the “DF norm AVERAGE OR13a” value at Drosophila OR13a (setting [7]), at Drosophila OR13a (setting [8]) and on Drosophila OR13a (setting [9]) were 0.05965, 0 and 0, respectively. The “DF norm AVERAGE OR98a” value at Drosophila OR98a (setting [7]), at Drosophila OR98a (setting [8]) and at Drosophila OR98a (setting [9]) was 0 each time.
For `CCc1ccccc1` [ethylbenzene], the activation at 1 µM was 1.44% at Drosophila OR13a (setting [12]), 0% at Drosophila OR13a (setting [13]), 0% on Drosophila OR98a (setting [10]) and 0% on Drosophila OR98a (setting [11]). The activation at 10 µM was found to be 1.55% on Drosophila OR13a (setting [12]), 0% on Drosophila OR13a (setting [13]), 12% at Drosophila OR98a (setting [10]) and 12% on Drosophila OR98a (setting [11]). Further, the activation at 100 µM on Drosophila OR13a (setting [12]), at Drosophila OR13a (setting [13]), at Drosophila OR98a (setting [10]) and on Drosophila OR98a (setting [11]) was 0% in each case. Moreover, the “DF norm AVERAGE OR13a” value at Drosophila OR13a (setting [14]), on Drosophila OR13a (setting [15]) and on Drosophila OR13a (setting [16]) was 0 in each case. Further, the “DF norm AVERAGE OR98a” value is listed as 0 on Drosophila OR98a (setting [14]), 0.1169 on Drosophila OR98a (setting [15]) and 0 at Drosophila OR98a (setting [16]).
In the case of `OCCc1ccccc1` [phenethyl alcohol], the activation at 1 µM at Drosophila OR13a (setting [1]) came out at 6.58%; at Drosophila OR98a (setting [10]), 4%; at Drosophila OR98a (setting [17]), 4%. Besides, the activation at 10 µM came out at 6% at Drosophila OR13a (setting [2]), 5% at Drosophila OR98a (setting [10]) and 5% at Drosophila OR98a (setting [17]). For the same molecule, the activation at 100 µM on Drosophila OR13a (setting [3]) was 3%; at Drosophila OR98a (setting [10]), 12%; at Drosophila OR98a (setting [17]), 12%. Further, on Drosophila OR13a (OR13a cell line, VOC concentration 1 μM), the “OR13a response (VUAA1-normalized) at 1 μM” value was found to be 0.0658. For the same molecule, the “OR13a response (VUAA1-normalized) at 10 μM” value on Drosophila OR13a (OR13a cell line, VOC concentration 10 μM) turned out to be 0.06. Moreover, at Drosophila OR13a (OR13a cell line, VOC concentration 100 μM), the “OR13a response (VUAA1-normalized) at 100 μM” value turned out to be 0.00. The “DF norm AVERAGE OR13a” value at Drosophila OR13a (setting [14]) is 0.06578; on Drosophila OR13a (setting [15]), 0.05738; at Drosophila OR13a (setting [16]), 0. For the same molecule, at Drosophila OR98a (OR98a cell line, VOC concentration 1 μM), the “OR98a response (VUAA1-normalized) at 1 μM” value is given as 0.00. In addition, the “OR98a response (VUAA1-normalized) at 10 μM” value on Drosophila OR98a (OR98a cell line, VOC concentration 10 μM) is 0.05. For the same molecule, at Drosophila OR98a (OR98a cell line, VOC concentration 100 μM), the “OR98a response (VUAA1-normalized) at 100 μM” value is 0.12. The “DF norm AVERAGE OR98a” value stood at 0 on Drosophila OR98a (setting [14]), 0.05123 at Drosophila OR98a (setting [15]) and 0.122 at Drosophila OR98a (setting [16]).
`CCCCCCCCC(CO)CCCCCC` (stereo not drawn) [2-hexyl-1-decanol]: the activation at 1 µM came to 7% at Drosophila OR13a (setting [1]), 7% on Drosophila OR13a (setting [4]), 0% on Drosophila OR98a (setting [10]) and 0% at Drosophila OR98a (setting [11]). Moreover, the activation at 10 µM turned out to be 0% at Drosophila OR13a (setting [2]), 0% on Drosophila OR13a (setting [5]), 14% at Drosophila OR98a (setting [10]) and 14% on Drosophila OR98a (setting [11]). Also, the activation at 100 µM came out at 0% on Drosophila OR13a (setting [3]), 0% on Drosophila OR13a (setting [6]), 2% on Drosophila OR98a (setting [10]) and 0% on Drosophila OR98a (setting [11]). Further, the entries for the “DF norm AVERAGE OR13a” value at Drosophila OR13a (setting [7]), at Drosophila OR13a (setting [8]) and at Drosophila OR13a (setting [9]) were 0.07079, 0 and 0, respectively. In addition, the “DF norm AVERAGE OR98a” value at Drosophila OR98a (setting [7]) is 0; on Drosophila OR98a (setting [8]) it was 0.1367; on Drosophila OR98a (setting [9]), 0.

Values taken from article PMC10709440, “High-throughput ligand profile characterization in novel cell lines expressing seven heterologous insect olfactory receptors for the detection of volatile plant biomarkers” (Scientific Reports, 2023).
